One compound from patent US9089532B2, “Stable dosage form of phenylalanine derivatives” (Wilex AG, priority 2004, dated 2015) can be followed below.

What all share (assay type): physicochemical
Data set [1] can be described thus: Preliminary testing: solubility of WX-UK1 in solvents and solvent mixtures. Particulars: in polyols, for example diols, and in mixtures of polyol/alcohol and water. An excerpt:
Both solvents are additionally suitable for parenteral administration of active ingredients.
FIG. 1 is a Table showing the maximum solubility of WX-UK1 in various solvents and solvent mixtures.

Data set [2] in a line: Stability study at 40° C./75% RH of the unbuffered PG/EtOH/water formulation (impurity content, pH value). Particulars: 40 mg/ml in PG/ethanol/water, stored at 40° C., 2-12 weeks. The procedure:
At the same time, the pH value of the formulation rose from 5.1 to 8.7 over a period of 12 weeks (FIG. 1).
0.4 ml of propylene glycol (PG) and 0.1 ml of ethanol were added in succession to 40 mg of WX-UK1. […] The remaining water (approx. 0.2 ml) was then added. The solution was then stored at 40° C. and the pH value and purity of the solution were in each case analysed after a period of 2, 4, 6, 8 and 12 weeks. To this end, 250 μl of the WX-UK1 solution were transferred into a 100 ml measuring flask and made up with water/acetonitrile (50:50 vol/vol) to the graduation mark (concentration: approx. 0.1 mg/ml of WX-UK1). 20 μl of this dilution were then analysed by means of a stability-indicating HPLC method analysed (see Annex). pH value-analysis of the WX-UK1 solution was carried out by means of a potentiometric method at 20-25° C.

Data set [3] is described as follows: pH-dependency of active ingredient breakdown at 60° C. Particulars: ethanol/water 1:1, 60° C., up to 48 h. The procedure: The pH-dependency of active ingredient breakdown (WX-UK1) was investigated at three different pH values with heat treatment at 60° C. by dissolving 2.5 mg of WX-UK1 in 1 ml of ethanol/water (1:1 vol/vol). This solution was aliquoted into three vessels. One aliquot was adjusted to pH 2 by addition of 20 μl of 1 N hydrochloric acid, a second aliquot was adjusted to pH 11 by addition of 20 μl of 2 N sodium hydroxide solution and the third aliquot was left at a neutral pH. After incubation, the solutions were analysed at defined points in time (0, 5, 12 and 48 h) by means of a stability-indicating HPLC method.

Data set [4] is described as follows: Earlier investigations: addition of phosphate buffer to WX-UK1 solutions.
Data set [5] can be described thus: Stability of sodium acetate-buffered solutions of various molarities at 60° C. Conditions: buffering the formulation with sodium acetate pH 5, 60° C., relative to unbuffered formulation. The procedure:
The stability study was carried out at 60° C. in order to achieve accelerated breakdown of WX-UK1 (FIG. 5). The WX-UK1 peak area percentage, determined by a stability-indicating HPLC method, was evaluated.

On to `CCOC(=O)N1CCN(C(=O)[C@H](Cc2cccc(C(=N)N)c2)NS(=O)(=O)c2c(C(C)C)cc(C(C)C)cc2C(C)C)CC1` [WX-UK1, Nα-(2,4,6-triisopropylphenylsulfonyl)-3-amidino-(L)-phenylalanine-4-ethoxycarbonylpiperazide], for which the solubility entry in data set [1] was “very good solubility”. Besides, the “breakdown in relation to pH value of the solution” value in data set [2] is “the higher is the pH value of the solution, the faster WX-UK1 breaks down”. Moreover, the “stability (breakdown, HPLC)” value in data set [3] (acidic pH (pH 2)) is “remained stable”; in data set [3] (neutral or basic pH (pH 11)), “moderate to rapid breakdown”. Moreover, in data set [4], the precipitate formation result was “formation of a precipitate”. The rate of breakdown result in data set [5] is recorded as “considerable reduction in the rate of breakdown”.
